Test results from PMC6282036, “Dual-Specificity Phosphatase CDC25B Was Inhibited by Natural Product HB-21 Through Covalently Binding to the Active Site” (Frontiers in Chemistry, 2018).

Tests used:
[1] = molecular target: T1, Cdc25B (Homo sapiens, UniProt P30305); assay: OMFP fluorometric phosphatase assay (CycLex Cdc25B kit), positive control; type: biochemical
T1 construct: recombinant human Cdc25B
T1 sequence (P30305 1-580): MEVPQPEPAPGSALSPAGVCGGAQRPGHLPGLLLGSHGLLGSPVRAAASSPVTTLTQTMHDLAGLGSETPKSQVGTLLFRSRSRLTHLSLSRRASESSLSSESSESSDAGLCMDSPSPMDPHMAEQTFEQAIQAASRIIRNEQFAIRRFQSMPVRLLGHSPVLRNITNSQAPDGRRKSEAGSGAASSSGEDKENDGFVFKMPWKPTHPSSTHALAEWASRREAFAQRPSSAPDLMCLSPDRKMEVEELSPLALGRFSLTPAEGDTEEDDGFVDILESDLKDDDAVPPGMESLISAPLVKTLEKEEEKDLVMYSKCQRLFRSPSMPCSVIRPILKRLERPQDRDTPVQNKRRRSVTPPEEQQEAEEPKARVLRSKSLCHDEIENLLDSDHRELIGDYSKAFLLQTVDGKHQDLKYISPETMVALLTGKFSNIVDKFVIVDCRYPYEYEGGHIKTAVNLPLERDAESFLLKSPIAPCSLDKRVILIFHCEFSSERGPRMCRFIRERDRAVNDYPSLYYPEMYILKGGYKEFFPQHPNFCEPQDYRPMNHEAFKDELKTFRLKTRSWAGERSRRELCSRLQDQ

[2] = molecular target: T2, Cdc25B (Homo sapiens, UniProt P30305); assay: intact protein ESI-Q-TOF MS of covalent adducts; IC50 from OMFP fluorometric assay with recombinant Cdc25B; type: biochemical
T2 construct: Cdc25B catalytic domain (372–551)
T2 sequence (P30305 386-565): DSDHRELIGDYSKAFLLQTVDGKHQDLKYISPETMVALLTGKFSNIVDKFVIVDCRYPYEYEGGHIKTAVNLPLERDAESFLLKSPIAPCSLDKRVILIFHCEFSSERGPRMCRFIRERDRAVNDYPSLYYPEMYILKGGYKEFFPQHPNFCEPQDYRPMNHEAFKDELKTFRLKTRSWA

Row | IC50 [1] | IC50 [2] | Structure (SMILES)
1 | 5.37 ± 0.45 µM | – | CNC1=CC(=O)c2ccncc2C1=O [Caulibugulone A]
2 | – | 24.8 ± 1.63 µM | C=C1C(=O)O[C@@H]2C[C@H](C)C(CCC(C)=O)=C[C@H](O)[C@H]12 [HB-21]
